Experimental data: patent publication US6602900B2, “Cyclopentane heptan(ENE)oic acid, 2-heteroarylalkenyl derivatives as therapeutic agents” (Allergan, Inc., priority 1992, dated 2003)

Columns and labels:
EP1 receptor = target: T1, EP1 receptor (Cavia porcellus, UniProt A0A286XHJ6); assay: EP1-activity: contraction of the longitudinal smooth muscle of the isolated guinea pig ileum; assay type: cell-based
T1 sequence (A0A286XHJ6 1-405): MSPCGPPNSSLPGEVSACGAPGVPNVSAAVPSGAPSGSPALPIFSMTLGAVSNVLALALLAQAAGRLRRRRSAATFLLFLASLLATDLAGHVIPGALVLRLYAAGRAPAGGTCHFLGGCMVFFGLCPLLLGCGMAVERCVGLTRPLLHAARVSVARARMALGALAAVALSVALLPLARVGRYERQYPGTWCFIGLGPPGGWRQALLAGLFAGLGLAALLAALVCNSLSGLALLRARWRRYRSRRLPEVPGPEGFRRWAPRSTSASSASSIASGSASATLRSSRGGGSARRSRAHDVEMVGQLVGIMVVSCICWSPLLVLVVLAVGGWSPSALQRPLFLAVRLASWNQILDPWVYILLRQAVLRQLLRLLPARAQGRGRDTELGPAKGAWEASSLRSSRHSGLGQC
Protocol: (§1) Activity at different prostanoid receptors was measured in vitro in isolated smooth muscle preparations. FP-activity was measured as contraction of the isolated feline iris sphincter. EP1-activity was measured as contraction of the longitudinal smooth muscle of the isolated guinea pig ileum. EP3-activity was measured as inhibition of the twitch response induced by electrical field stimulation in the isolated guinea pig was deferens and as contraction of the longitudinal smooth muscle of the isolated chick ileum. Activity was also measured as relaxation of smooth muscle of isolated rabbit jugular vein a preparation which appears to contain a unique PGF2α-sensitive receptor provisionally termed FPVASC. TP-vasoconstrictor activity was measured as contraction of rings of the isolated rat thoracic aorta. Effects on platelets from healthy human donors were measured by incubating platelet-rich plasma with the compounds described herein. Inhibition of aggregation was determined by the ability of the compounds described herein to inhibit platelet aggregation in platelet-rich plasma induced by 20 μM ADP.

EP3 receptor = target: T2, EP3 receptor (UniProt A0A286XLZ9); assay: EP3-activity: inhibition of the twitch response induced by electrical field stimulation in the isolated guinea pig vas deferens; assay type: cell-based; details: pa = printed beside some values, read-out: EC50 (nM) EP3, first value of the cell
T2 sequence (A0A286XLZ9 1-363): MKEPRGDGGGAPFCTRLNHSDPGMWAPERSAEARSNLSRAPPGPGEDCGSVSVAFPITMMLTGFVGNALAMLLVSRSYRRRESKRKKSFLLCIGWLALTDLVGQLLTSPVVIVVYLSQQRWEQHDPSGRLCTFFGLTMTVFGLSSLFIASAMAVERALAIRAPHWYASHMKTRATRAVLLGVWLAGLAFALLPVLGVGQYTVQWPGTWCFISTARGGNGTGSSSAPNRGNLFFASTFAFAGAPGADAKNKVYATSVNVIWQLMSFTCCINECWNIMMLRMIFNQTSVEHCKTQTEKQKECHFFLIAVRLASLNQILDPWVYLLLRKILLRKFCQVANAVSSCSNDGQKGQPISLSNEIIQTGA
Protocol: as §1

[1] = system: PGF2α-sensitive receptor provisionally termed FPVASC; assay: Relaxation of smooth muscle of isolated rabbit jugular vein; assay type: cell-based; details: isolated rabbit jugular vein relaxation; read-out: EC50 (nM) FPVASC
Protocol: as §1

TP receptor = target: T3, TP receptor (Rattus norvegicus, UniProt P34978); assay: TP-vasoconstrictor activity: contraction of rings of the isolated rat thoracic aorta; assay type: cell-based; details: isolated rat thoracic aorta contraction; read-out: EC50 (nM) TP
T3 construct: rings of the isolated rat thoracic aorta; from tissue; host or cells: isolated rat thoracic aorta rings
T3 sequence (P34978 1-341): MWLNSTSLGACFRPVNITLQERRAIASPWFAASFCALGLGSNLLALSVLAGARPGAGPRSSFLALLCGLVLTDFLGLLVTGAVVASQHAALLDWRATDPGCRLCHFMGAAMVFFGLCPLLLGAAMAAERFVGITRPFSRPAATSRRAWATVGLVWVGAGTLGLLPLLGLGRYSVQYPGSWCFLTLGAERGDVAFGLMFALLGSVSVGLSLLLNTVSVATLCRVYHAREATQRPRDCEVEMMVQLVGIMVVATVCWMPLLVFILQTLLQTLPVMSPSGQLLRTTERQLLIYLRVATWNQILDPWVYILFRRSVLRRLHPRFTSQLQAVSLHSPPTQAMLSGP
Protocol: as §1

Dog eye (hyperemia) = assay: Ocular surface hyperemia in dogs after topical dosing; assay type: in vivo; design: scale not given here
Dog eye (miosis) = assay: Miosis in dogs after topical dosing; assay type: in vivo
Dog intraocular pressure = Dog intraocular pressure by applanation pneumatonometry; assay type: in vivo; details: dogs
Protocol: The compounds were prepared at the said concentrations in a vehicle comprising 0.1% polysorbate 80 and 10 mM TRIS base. Dogs were treated by administering 25 μl to the ocular surface, the contralateral eye received vehicle as a control. Intraocular pressure was measured by applanation pneumatonometry. Dog intraocular pressure was measured immediately before drug administration and at 6 hours thereafter.

intraocular pressure = details: ocular; cited from earlier work
ocular surface = details: humans; cited from earlier work

| EC50 (EP1 receptor) | EC50 (EP3 receptor) | EC50 [1] | EC50 (TP receptor) | Hyp (hyperemia score) (Dog eye (hyperemia); 0.1%) | Miosis (Dog eye (miosis); 0.1%) | Molecule | ocular hypotensive effect (in words) (Dog intraocular pressure) | also measured |
| --- | --- | --- | --- | --- | --- | --- | --- | --- |
| > 10000 nM | 43 nM | 20 nM | 4010 nM | 0.38 | pinpt | O=C(O)CCC/C=C\C[C@@H]1[C@@H](/C=C/[C@@H](O)CCc2cccs2)[C@H](O)C[C@@H]1O | – | – |
| > 10000 nM | > 10000 nM | 31 nM | > 10000 nM | 0.79 | pinpt | O=C(O)CCC/C=C\C[C@@H]1[C@@H](/C=C/[C@H](O)CCc2cccs2)[C@H](O)C[C@@H]1O | – | – |
| > 10000 nM | 305 nM | > 7140 nM | ~10000 nM | 1.38 | pinpt | Cc1cc(CC[C@H](O)/C=C/[C@@H]2[C@@H](C/C=C\CCCC(=O)O)[C@@H](O)C[C@H]2O)cs1 | – | Hyp (hyperemia score) (Dog eye (hyperemia); 0.01%): 0.42; Miosis (Dog eye (miosis); 0.01%): pinpt |
| > 10000 nM | 36 nM | 8.5 nM | 5080 nM | 1.0 | pinpoint | O=C(O)CCC/C=C\C[C@@H]1[C@@H](/C=C/[C@@H](O)CCc2ccc(Br)s2)[C@H](O)C[C@@H]1O | – | – |
| – | – | – | – | – | – | O=C(O)CCC/C=C\C[C@@H]1[C@@H](/C=C/[C@@H](O)CCc2cc(Cl)sc2Cl)[C@H](O)C[C@@H]1O [Compound 4g, 7-[3α,5α-Dihydroxy-2-(3α-hydroxy-5-(3-(2,5-dichloro)thienyl)-1E-pentenyl)cyclopentyl]-5Z-heptenoic acid] | pronounced ocular hypotensive effect | – |
| – | – | – | – | – | – | O=C(O)CCC/C=C\C[C@@H]1[C@@H](/C=C/[C@@H](O)CCc2ccsc2)[C@H](O)C[C@@H]1O [Compound 4p, 7-[3α,5α-Dihydroxy-2-(3α-hydroxy-5-(3-thienyl)-1E-pentenyl)cyclopentyl]-5Z-heptenoic acid] | excellent ability to lower intraocular pressure | – |
| – | – | – | – | – | – | NC(=O)CCC/C=C\CC1C(O)CC(O)C1/C=C/C(O)CCc1sccc1I (stereo not shown) [Compound 8t] | pronounced ocular hypotensive effect | – |
| – | – | – | – | – | – | Cc1c(Br)csc1CCC(O)/C=C/C1C(O)CC(O)C1C/C=C\CCCC(N)=O (stereo not shown) [Compound 8u] | pronounced ocular hypotensive effect | – |
| – | – | – | – | – | – | NC(=O)CCC/C=C\CC1C(O)CC(O)C1/C=C/C(O)CCc1scc(Br)c1Br (stereo not shown) [Compound 8v] | pronounced ocular hypotensive effect | – |
| 2000 nM | 400 nM | 9.2 nM | 2460 nM | 0.6 | pinpoint | O=C(O)CCC/C=C\C[C@@H]1[C@@H](/C=C/[C@@H](O)CCc2ccsc2)[C@H](O)C[C@@H]1O [drawing 12] | – | – |
| > 10000 nM | > 10000 nM | 7.7 nM | 2300 nM | 0.5 | pinpt | O=C(O)CCC/C=C\C[C@@H]1[C@@H](/C=C/[C@@H](O)CCc2cc(Cl)sc2Cl)[C@H](O)C[C@@H]1O [drawing 28] | – | – |
| – | – | – | – | – | – | CCCCC[C@H](O)/C=C/[C@@H]1[C@@H](C/C=C\CCCC(=O)OC(C)C)[C@@H](O)C[C@H]1O [isopropyl ester of PGF2α] | – | hypotensive potency versus parent compound (in words) (intraocular pressure): significantly greater hypotensive potency than the parent compound; side effects of topical ocular use (in words) (ocular surface): ocular surface (conjunctival) hyperemia and foreign-body sensation |
| – | – | – | – | – | – | prostaglandin F2α [PGF2α] | – | side effects of topical ocular use (in words) (ocular surface): ocular surface (conjunctival) hyperemia and foreign-body sensation |
